Experimental data: patent publication US5541163A, “Renin inhibiting N-(2-amino-2-oxoethyl)butanediamide derivatives” (Bio-Mega/Boehringer Ingelheim Research Inc., priority 1993, dated 1996)

Target: T1, human renin (Homo sapiens, UniProt P00797)
T1 construct: A human plasma pool is used as the source of both the substrate (angiotensinogen) and the enzyme (renin); from tissue; host or cells: human plasma pool
T1 sequence (P00797 67-406): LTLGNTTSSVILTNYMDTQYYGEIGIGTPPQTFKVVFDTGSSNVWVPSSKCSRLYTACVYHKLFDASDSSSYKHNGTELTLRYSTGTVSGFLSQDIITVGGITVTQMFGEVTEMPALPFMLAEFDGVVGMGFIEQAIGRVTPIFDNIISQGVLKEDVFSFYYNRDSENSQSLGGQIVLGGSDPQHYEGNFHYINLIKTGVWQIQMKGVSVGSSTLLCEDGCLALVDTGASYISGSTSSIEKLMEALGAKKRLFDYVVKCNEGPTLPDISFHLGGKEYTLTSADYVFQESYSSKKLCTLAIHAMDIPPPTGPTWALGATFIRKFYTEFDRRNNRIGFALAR
Assay: Plasma renin assay (inhibition of human renin, angiotensin I by RIA)
Assay type: biochemical
Details: human plasma pool, pH 6.0, 2 h incubation at 37°
Protocol: The assay is performed as follows: The test compound (i.e. the inhibitor) is dissolved in dimethylsulfoxide (1 mM stock solution) and diluted with an aqueous buffer solution of 270 mM 2-(N-morpholino)ethanesulfonic acid and 1% human serum albumin (pH 5.85, also containing dimercaprol and 8-hydroxyquinoline sulfate in accordance with the instructions of the RIA kit noted below) to give an assay mixture in which the final dimethylsulfoxide content is 1% (v/v).
A human plasma pool is used as the source of both the substrate (angiotensinogen) and the enzyme (renin). The reaction is initiated by the addition of 50 μL of human plasma pool to 50 μL of various concentrations of inhibitor in the 1% dimethylsulfoxide assay buffer. The plasma renin activity is measured by the amount of angiotensin I generated at pH 6.0 following a 2 h incubation at 37°.
Quantitation of angiotensin I is performed by radioimmunoassay (RIA kit from New England Nuclear-Dupont, Mississauga, ON, Canada). The enzymatic activity of renin is expressed in ng of angiotensin I generated (/mL/2 h). The extent of inhibition of the reaction is determined from the amount of angiotensin I generated in reference to a control prepared without inhibitor. Nonlinear regression analysis is used to calculate the IC50 values, i.e. the molar concentration of the test compound required to cause a 50% inhibition of the enzyme activity.

Row | SMILES | IC50 [nM]
1 | CNC(=O)CN(Cc1ccccc1)C(=O)C[C@@H](CC1CC1)C(=O)N[C@@H](CC1CCCCC1)[C@@H](O)[C@@H](O)CC(C)C [Compound 6, N^4-benzyl-N^4-[2-(methylamino)-2-oxoethyl]-N^1-[1(S)-(cyclohexylmethyl)-2(R),3(S)-dihydroxy-5-methylhexyl]-2(R)-(cyclopropylmethyl)butanediamide] | 350
2 | CC(C)C[C@H](O)[C@H](O)[C@H](CC1CCCCC1)NC(=O)[C@@H](CC(=O)N(CC(=O)N(C)C)CC(C)(C)c1ccccc1)CC1CC1 [Compound 21, N^4-[2-(dimethylamino)-2-oxoethyl]-N^4-(2-methyl-2-phenylpropyl)-N^1-[1(S)-(cyclohexylmethyl)-2(R),3(S)-dihydroxy-5-methylhexyl]-2(R)-(cyclopropylmethyl)butanediamide] | 150
3 | CC(C)C[C@H](O)[C@H](O)[C@H](CC1CCCCC1)NC(=O)[C@@H](CC(=O)N(CCCc1ccccc1)CC(=O)N(C)C)CC1CC1 [Compound 4, N^4-[2-(dimethylamino)-2-oxoethyl]-N^4-(3-phenylpropyl)-N^1-[1(S)-(cyclohexylmethyl)-2(R),3(S)-dihydroxy-5-methylhexyl]-2(R)-(cyclopropylmethyl)butanediamide] | 220
4 | CC(C)C[C@H](O)[C@H](O)[C@H](CC1CCCCC1)NC(=O)[C@@H](CC(=O)N(CC(=O)N(C)C)Cc1ccccn1)CC1CC1 [Compound 13, N^4-[2-(dimethylamino)-2-oxoethyl]-N^4-(2-pyridinylmethyl)-N^1-[1(S)-(cyclohexylmethyl)-2(R),3(S)-dihydroxy-5-methylhexyl]-2(R)-(cyclopropylmethyl)butanediamide] | 120
5 | CC(C)C[C@H](O)[C@H](O)[C@H](CC1CCCCC1)NC(=O)[C@@H](CC(=O)N(CC(=O)N(C)CCN(C)C)[C@@H](C)c1ccccc1)CC1CC1 [Compound 23, N^4 -{2-{[2-(dimethylamino)ethyl]methylamino}-2-oxoethyl}-N^4-[1(S)-phenylethyl]-N^1-[1(S)-(cyclohexylmethyl)-2(R),3(S)-dihydroxy-5-methylhexyl]-2(R)-(cyclopropylmethyl)-butanediamide] | 26
6 | CC(C)C[C@H](O)[C@H](O)[C@H](CC1CCCCC1)NC(=O)[C@@H](CC(=O)N(CC(=O)N(C)C)[C@@H](C)c1ccccc1)Cc1csc(N)n1 [Compound 28, N^4-[2-(dimethylamino)-2-oxoethyl]-N^4-[1(S)-phenylethyl]-N^1-[1(S)-(cyclohexylmethyl)-2(R),3(S)-dihydroxy-5-methylhexyl]-2(R)-[(2-amino-4-thiazolyl)methyl]butanediamide] | 1.3
7 | CCC[C@H](CC(=O)N(CC(=O)N(C)C)[C@@H](C)c1ccccc1)C(=O)N[C@@H](CC1CCCCC1)[C@@H](O)[C@@H](O)CC(C)C [Compound 25, N^4-[2-(dimethylamino)-2-oxoethyl]-N^4-[1(S)-phenylethyl]-N^1-[1(S)-(cyclohexylmethyl)-2(R),3(S)-dihydroxy-5-methylhexyl]-2(R)-propylbutanediamide] | 34
8 | CC(C)C[C@H](O)[C@H](O)[C@H](CC1CCCCC1)NC(=O)[C@@H](CC(=O)N(CC(=O)N(C)C)CC1CCCCC1)CC1CC1 [Compound 31, N^4-(cyclohexylmethyl)-N^4-(2-(dimethylamino)-2-oxoethyl]-N^1-[1(S)-(cyclohexylmethyl)-2(R),3(S)-dihydroxy-5-methylhexyl]-2(R)-(cyclopropylmethyl)butanediamide] | 13
9 | CC(C)C[C@H](O)[C@H](O)[C@H](CC1CCCCC1)NC(=O)[C@@H](CC(=O)N(CCc1ccccc1)CC(=O)N(C)C)CC1CC1 [Compound 3, N^4-[2-(dimethylamino)-2-oxoethyl]-N^4-(2-phenylethyl)-N^1-[1(S)-(cyclohexylmethyl)-2(R),3(S)-dihydroxy-5-methylhexyl]-2(R)-(cyclopropylmethyl)butanediamide] | 59
10 | CCN(CC)CCN(C)C(=O)CN(C(=O)C[C@@H](CC1CC1)C(=O)N[C@@H](CC1CCCCC1)[C@@H](O)[C@@H](O)CC(C)C)[C@@H](C)c1ccccc1 [Compound 24, N^4 -{2-{[2-(diethylamino)ethyl]methylamino}-2-oxoethyl}-N^4-[1(S)-phenylethyl]-N^1-[1(S)-(cyclohexylmethyl)-2(R),3(S)-dihydroxy-5-methylhexyl]-2(R)-(cyclopropylmethyl)-butanediamide] | 61

Results, then the compound that gave them:

Row | IC50 [nM] | SMILES
11 | 45 | CN(CCc1ccccn1)C(=O)CN(CC1CCCCC1)C(=O)C[C@@H](Cc1csc(N)n1)C(=O)N[C@@H](CC1CCCCC1)[C@@H](O)CSc1nnnn1C [Compound 65, N^4-(cyclohexylmethyl)-N^4 -{2-{methyl-[2-(2-pyridinyl)ethyl]amino}-2-oxoethyl}-N^1 -{1(S)-(cyclohexylmethyl)-2(R)-hydroxy-3-[(l-methyl-1H-tetrazol-5-yl)thio]propyl}-2(R)-[(2-amino-4-thiazolyl)methyl]-butanediamide]
12 | 1 | CC(C)C[C@H](O)[C@H](O)[C@H](CC1CCCCC1)NC(=O)[C@@H](CC(=O)N(CC(=O)N(C)C)CC1CCCC1)Cc1csc(N)n1 [Compound 85, N^4-(cyclopentylmethyl)-N^4-[2-(dimethylamino)-2-oxoethyl]-N^1-[1(S)-(cyclohexylmethyl)-2(R),3(S)-dihydroxy-5-methylhexyl]-2(R)-[(2-amino-4-thiazolyl)methyl]butanediamide]
13 | 8.3 | CC(C)C[C@H](O)[C@H](O)[C@H](CC1CCCCC1)NC(=O)[C@@H](CC(=O)N(CC(=O)N(C)C)[C@@H](C)C1CCCCC1)CC1CC1 [Compound 38, N^4-(1(S)-cyclohexylethyl)-N^4-[2-(dimethylamino)-2-oxoethyl]-N^1-[1(S)-(cyclohexylmethyl)-2(R),3(S)-dihydroxy-5-methylhexyl]-2(R)-(cyclopropylmethyl)butanediamide]
14 | 145 | CC(C)C[C@H](O)[C@H](O)[C@H](CC1CCCCC1)NC(=O)[C@@H](CC(=O)N(CCc1ccccn1)CC(=O)N(C)C)CC1CC1 [Compound 51, N^4-[2-(dimethylamino)-2-oxoethyl]-N^4-[2-(2-pyridinyl)ethyl]-N^1-(1(S)-(cyclohexylmethyl)-2(R),3(S)-dihydroxy-5-methylhexyl]-2(R)-(cyclopropylmethyl)butanediamide]
15 | 5 | CCCC(CCC)CN(CC(=O)N(C)CCc1ccccn1)C(=O)C[C@@H](Cc1csc(N)n1)C(=O)N[C@@H](CC1CCCCC1)[C@@H](O)[C@@H](O)CC(C)C [Compound 92, N^4 -{2-{methyl[2-(2-pyridinyl)ethyl]-amino}-2-oxoethyl}-N^4-(2-propylpentyl)-N^1-[1(S)-(cyclohexylmethyl)-2(R),3(S)-dihydroxy-5-methylhexyl]-2(R)-[(2-amino-4-thiazolyl)methyl]-butanediamide]
16 | 0.35 | CC(C)C[C@H](O)[C@H](O)[C@H](CC1CCCCC1)NC(=O)[C@@H](CC(=O)N(CC(=O)N(C)CCN(C)C(=O)N1CCOCC1)CC1CCCCC1)Cc1csc(N)n1 [Compound 83, N^4-(cyclohexylmethyl)-N^4 -{2-{methyl{2-[methyl(morpholinocarbonyl)-amino]ethyl}amino}-2-oxoethyl}-N^1-[1(S)-(cyclohexylmethyl)-2(R),3(S)-dihydroxy-5-methylhexyl]-2(R)-[(2-amino-4-thiazolyl)methyl]butanediamide]
17 | 1.6 | CC(C)C[C@H](O)[C@H](O)[C@H](CC1CCCCC1)NC(=O)[C@@H](CC(=O)N(CC(=O)N1CCOCC1)CC1CCCCC1)Cc1nccs1 [Compound 39, N^4-(cyclohexylmethyl)-N^4-(2-morpholino-2-oxoethyl)-N^1-[1(S)-(cyclohexylmethyl)-2(R),3(S)-dihydroxy-5-methylhexyl]-2(S)-(2-thiazolylmethyl)butanediamide]
18 | 4 | Cc1ccsc1CN(CC(=O)N(C)CCc1ccccn1)C(=O)C[C@@H](Cc1csc(N)n1)C(=O)N[C@@H](CC1CCCCC1)[C@@H](O)[C@@H](O)CC(C)C [Compound 88, N^4 -{2-{methyl[2-(2-pyridinyl)ethyl]-amino}-2-oxoethyl}-N^4-[(3-methyl-2-thienyl)methyl]-N^4-[1(S)-(cyclohexylmethyl)-2(R),3(S)-dihydroxy-5-methylhexyl]-2(R)-[(2-amino-4-thiazolyl)methyl]butanediamide]
19 | 3 | COCOC1CCN(C(=O)CN(CC2CCCCC2)C(=O)C[C@@H](Cc2csc(N)n2)C(=O)N[C@@H](CC2CCCCC2)[C@@H](O)[C@@H](O)CC(C)C)CC1 [Compound 62, N^4 -{2-[4-(methoxymethoxy)piperidinyl]-2-oxoethyl}-N^4-(cyclohexylmethyl)-N^1-[1(S)-(cyclohexylmethyl)-2(R),3(S)-dihydroxy-5-methylhexyl]-2(R)-[(2-amino-4-thiazolyl)methyl]-butanediamide]
